molecular target: T1, Adenosine receptor A2b (Homo sapiens, UniProt P29275); experiment: Binding affinity for adenosine A2b receptor by using as [3H]ZM-241385 radioligand in membranes from HEK-A2B cells
T1 sequence (P29275 whole entry): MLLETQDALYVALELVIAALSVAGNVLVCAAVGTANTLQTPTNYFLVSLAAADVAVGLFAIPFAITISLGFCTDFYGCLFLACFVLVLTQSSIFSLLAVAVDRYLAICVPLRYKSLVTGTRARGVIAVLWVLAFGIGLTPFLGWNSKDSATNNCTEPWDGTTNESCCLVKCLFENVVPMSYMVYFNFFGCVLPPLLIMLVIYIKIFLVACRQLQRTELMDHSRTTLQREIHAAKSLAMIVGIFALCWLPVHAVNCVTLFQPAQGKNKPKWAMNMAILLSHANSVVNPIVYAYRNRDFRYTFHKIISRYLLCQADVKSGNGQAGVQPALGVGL

Row | SMILES | Ki [nM]
1 | CCCn1c(=O)c2[nH]c(-c3ccc(OCc4nc(-c5ccc(F)cc5)no4)cc3)nc2n(CCC)c1=O | 215

molecular target: T1, Adenosine receptor A2b; experiment: not given

Row | SMILES | Ki [nM]
2 | CCCn1c(=O)c2[nH]c(-c3ccc(OCc4nc(-c5ccc(F)cc5)no4)cc3)nc2n(CCC)c1=O | 215
3 | CCCn1c(=O)c2nc(-c3ccc(OCc4noc(-c5ccc(C(F)(F)F)cc5)n4)cc3)[nH]c2n(CCC)c1=O | 255
4 | CCCn1c(=O)c2nc(-c3ccc(OCc4nc(-c5ccccc5Cl)no4)cc3)[nH]c2n(CCC)c1=O | 1830
5 | CCCn1c(=O)c2[nH]c(-c3ccc(OCc4noc(-c5ccccc5Cl)n4)cc3)nc2n(CCC)c1=O | 5830
6 | CCCn1c(=O)c2nc(-c3ccc(OCc4noc(-c5ccc(C)cc5)n4)cc3)[nH]c2n(CCC)c1=O | 91
7 | CCCn1c(=O)c2nc(-c3ccc(OCc4nc(-c5ccc(C)cc5)no4)cc3)[nH]c2n(CCC)c1=O | 526
8 | CCCn1c(=O)c2nc(-c3ccc(OCc4noc(-c5cccc(Cl)c5)n4)cc3)[nH]c2n(CCC)c1=O | 2080
9 | CCCn1c(=O)c2nc(-c3ccc(OCc4nc(-c5ccccc5F)no4)cc3)[nH]c2n(CCC)c1=O | > 2000
10 | CCCn1c(=O)c2[nH]c(-c3ccc(OCc4nc(-c5ccc(Cl)cc5)no4)cc3)nc2n(CCC)c1=O | 5170
11 | CCCn1c(=O)c2[nH]c(-c3ccc(OCc4nc(-c5ccccc5OC)no4)cc3)nc2n(CCC)c1=O | 557
12 | CCCn1c(=O)c2nc(-c3ccc(OCc4noc(-c5ccc(Cl)cc5)n4)cc3)[nH]c2n(CCC)c1=O | 3660
13 | CCCn1c(=O)c2[nH]c(-c3ccc(OCc4nc(-c5cccc(C(F)(F)F)c5)no4)cc3)nc2n(CCC)c1=O | 945
14 | CCCn1c(=O)c2nc(-c3ccc(OCc4noc(-c5ccccc5F)n4)cc3)[nH]c2n(CCC)c1=O | 645
15 | CCCn1c(=O)c2nc(-c3ccc(OCc4nc(-c5ccccc5C)no4)cc3)[nH]c2n(CCC)c1=O | 1120
16 | CCCn1c(=O)c2nc(-c3ccc(OCc4nc(-c5cccc(F)c5)no4)cc3)[nH]c2n(CCC)c1=O | 1450
17 | CCCn1c(=O)c2nc(-c3ccc(OCc4nc(-c5cccc(C)c5)no4)cc3)[nH]c2n(CCC)c1=O | > 6670
18 | CCCn1c(=O)c2nc(-c3ccc(OCc4noc(-c5ccccc5C)n4)cc3)[nH]c2n(CCC)c1=O | 438
19 | CCCn1c(=O)c2[nH]c(-c3ccc(OCc4noc(-c5ccc(C#N)cc5)n4)cc3)nc2n(CCC)c1=O | 207
20 | CCCn1c(=O)c2nc(-c3ccc(OCc4nc(-c5ccc(OC)cc5)no4)cc3)[nH]c2n(CCC)c1=O | 2780
21 | CCCn1c(=O)c2nc(-c3ccc(OCc4nc(-c5ccccc5C(F)(F)F)no4)cc3)[nH]c2n(CCC)c1=O | 325
22 | CCCn1c(=O)c2[nH]c(-c3ccc(OCc4noc(-c5ccc(OC)cc5)n4)cc3)nc2n(CCC)c1=O | 250
23 | CCCn1c(=O)c2nc(-c3ccc(OCc4nc(-c5cccc(OC)c5)no4)cc3)[nH]c2n(CCC)c1=O | 1680
24 | CCCn1c(=O)c2[nH]c(-c3ccc(OCc4nc(-c5ccc(C(F)(F)F)cc5)no4)cc3)nc2n(CCC)c1=O | 485
25 | CCCn1c(=O)c2nc(-c3ccc(OCc4noc(-c5cccc(C(F)(F)F)c5)n4)cc3)[nH]c2n(CCC)c1=O | 1010
26 | CCCn1c(=O)c2[nH]c(-c3ccc(OCc4noc(-c5ccccc5OC)n4)cc3)nc2n(CCC)c1=O | 127
27 | CCCn1c(=O)c2[nH]c(-c3ccc(OCc4noc(-c5ccc(F)cc5)n4)cc3)nc2n(CCC)c1=O | 220
28 | CCCn1c(=O)c2[nH]c(-c3ccc(OCc4noc(-c5cccc(F)c5)n4)cc3)nc2n(CCC)c1=O | > 2000
29 | CCCn1c(=O)c2[nH]c(-c3ccc(OCc4noc(-c5cccc(C)c5)n4)cc3)nc2n(CCC)c1=O | 700
30 | CCCn1c(=O)c2nc(-c3ccc(OCc4nc(-c5cccc(Cl)c5)no4)cc3)[nH]c2n(CCC)c1=O | 42
31 | CCCn1c(=O)c2nc(-c3ccc(OCc4nc(-c5ccc(C#N)cc5)no4)cc3)[nH]c2n(CCC)c1=O | 4520

molecular target: T1, Adenosine receptor A2b; experiment: Binding affinity against Adenosine A2b receptor labeled by [3H]ZM-241385 in membranes prepared from HEK-A2B cells

Row | SMILES | Ki [nM]
32 | CCCn1c(=O)c2[nH]c(-c3ccc(OCc4noc(-c5ccccc5OC)n4)cc3)nc2n(CCC)c1=O | 127

molecular target: T2, Adenosine receptor A1 (Homo sapiens, UniProt P30542); experiment: biochemical
T2 sequence (P30542 whole entry): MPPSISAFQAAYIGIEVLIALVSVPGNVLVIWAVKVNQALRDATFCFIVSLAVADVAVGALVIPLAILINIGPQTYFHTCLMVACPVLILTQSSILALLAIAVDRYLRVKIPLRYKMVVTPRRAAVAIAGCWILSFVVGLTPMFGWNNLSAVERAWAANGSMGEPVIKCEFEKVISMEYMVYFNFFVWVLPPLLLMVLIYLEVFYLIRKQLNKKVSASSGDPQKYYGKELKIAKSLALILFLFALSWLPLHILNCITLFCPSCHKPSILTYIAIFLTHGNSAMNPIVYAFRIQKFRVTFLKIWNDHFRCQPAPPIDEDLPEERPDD

Row | SMILES | Ki [nM]
33 | CCCn1c(=O)c2[nH]c(-c3ccc(OCc4nc(-c5ccc(F)cc5)no4)cc3)nc2n(CCC)c1=O | 1830
34 | CCCn1c(=O)c2nc(-c3ccc(OCc4noc(-c5ccc(C(F)(F)F)cc5)n4)cc3)[nH]c2n(CCC)c1=O | 5180
35 | CCCn1c(=O)c2nc(-c3ccc(OCc4nc(-c5ccccc5Cl)no4)cc3)[nH]c2n(CCC)c1=O | > 6000
36 | CCCn1c(=O)c2nc(-c3ccc(OCc4noc(-c5ccc(C)cc5)n4)cc3)[nH]c2n(CCC)c1=O | 113
37 | CCCn1c(=O)c2nc(-c3ccc(OCc4nc(-c5ccc(C)cc5)no4)cc3)[nH]c2n(CCC)c1=O | 643
38 | CCCn1c(=O)c2nc(-c3ccc(OCc4noc(-c5cccc(Cl)c5)n4)cc3)[nH]c2n(CCC)c1=O | > 6000
39 | CCCn1c(=O)c2nc(-c3ccc(OCc4nc(-c5ccccc5F)no4)cc3)[nH]c2n(CCC)c1=O | > 6000
40 | CCCn1c(=O)c2[nH]c(-c3ccc(OCc4nc(-c5ccccc5OC)no4)cc3)nc2n(CCC)c1=O | > 6000
41 | CCCn1c(=O)c2[nH]c(-c3ccc(OCc4nc(-c5cccc(C(F)(F)F)c5)no4)cc3)nc2n(CCC)c1=O | > 6000
42 | CCCn1c(=O)c2nc(-c3ccc(OCc4nc(-c5ccccc5C)no4)cc3)[nH]c2n(CCC)c1=O | > 6000
43 | CCCn1c(=O)c2nc(-c3ccc(OCc4nc(-c5cccc(F)c5)no4)cc3)[nH]c2n(CCC)c1=O | 2010
44 | CCCn1c(=O)c2nc(-c3ccc(OCc4nc(-c5cccc(C)c5)no4)cc3)[nH]c2n(CCC)c1=O | > 6000
45 | CCCn1c(=O)c2nc(-c3ccc(OCc4noc(-c5ccccc5C)n4)cc3)[nH]c2n(CCC)c1=O | > 10000
46 | CCCn1c(=O)c2[nH]c(-c3ccc(OCc4noc(-c5ccc(C#N)cc5)n4)cc3)nc2n(CCC)c1=O | 288
47 | CCCn1c(=O)c2nc(-c3ccc(OCc4nc(-c5ccc(OC)cc5)no4)cc3)[nH]c2n(CCC)c1=O | > 6000
48 | CCCn1c(=O)c2nc(-c3ccc(OCc4nc(-c5ccccc5C(F)(F)F)no4)cc3)[nH]c2n(CCC)c1=O | 473
49 | CCCn1c(=O)c2[nH]c(-c3ccc(OCc4noc(-c5ccc(OC)cc5)n4)cc3)nc2n(CCC)c1=O | 2190
50 | CCCn1c(=O)c2nc(-c3ccc(OCc4nc(-c5cccc(OC)c5)no4)cc3)[nH]c2n(CCC)c1=O | > 6000
51 | CCCn1c(=O)c2[nH]c(-c3ccc(OCc4nc(-c5ccc(C(F)(F)F)cc5)no4)cc3)nc2n(CCC)c1=O | 1170
52 | CCCn1c(=O)c2nc(-c3ccc(OCc4noc(-c5cccc(C(F)(F)F)c5)n4)cc3)[nH]c2n(CCC)c1=O | > 6000
53 | CCCn1c(=O)c2[nH]c(-c3ccc(OCc4noc(-c5ccccc5OC)n4)cc3)nc2n(CCC)c1=O | 1160
54 | CCCn1c(=O)c2[nH]c(-c3ccc(OCc4noc(-c5ccc(F)cc5)n4)cc3)nc2n(CCC)c1=O | > 6000
55 | CCCn1c(=O)c2[nH]c(-c3ccc(OCc4noc(-c5cccc(F)c5)n4)cc3)nc2n(CCC)c1=O | > 6000
56 | CCCn1c(=O)c2nc(-c3ccc(OCc4nc(-c5cccc(Cl)c5)no4)cc3)[nH]c2n(CCC)c1=O | 6.4
57 | CCCn1c(=O)c2nc(-c3ccc(OCc4nc(-c5ccc(C#N)cc5)no4)cc3)[nH]c2n(CCC)c1=O | > 6000

molecular target: T3, Adenosine receptor A2a (Homo sapiens, UniProt P29274); experiment: biochemical
T3 sequence (P29274 whole entry): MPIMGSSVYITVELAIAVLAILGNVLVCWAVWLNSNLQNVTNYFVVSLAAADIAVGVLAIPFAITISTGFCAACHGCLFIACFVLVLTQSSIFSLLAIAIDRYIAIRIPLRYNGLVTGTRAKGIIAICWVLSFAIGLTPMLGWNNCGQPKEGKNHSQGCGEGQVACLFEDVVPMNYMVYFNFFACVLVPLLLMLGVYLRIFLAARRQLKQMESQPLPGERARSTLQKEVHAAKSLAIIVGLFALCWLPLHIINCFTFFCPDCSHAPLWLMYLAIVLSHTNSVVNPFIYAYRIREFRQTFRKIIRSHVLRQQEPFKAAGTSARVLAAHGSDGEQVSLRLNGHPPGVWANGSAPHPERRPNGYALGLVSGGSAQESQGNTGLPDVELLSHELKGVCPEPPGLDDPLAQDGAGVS
Description: Binding affinity for adenosine A2a receptor by using as [3H]ZM-241385 (2 nM) radioligand in membranes from HEK-A2A cells

Row | SMILES | Ki [nM]
58 | CCCn1c(=O)c2[nH]c(-c3ccc(OCc4nc(-c5ccc(F)cc5)no4)cc3)nc2n(CCC)c1=O | > 5000
59 | CCCn1c(=O)c2nc(-c3ccc(OCc4noc(-c5ccc(C(F)(F)F)cc5)n4)cc3)[nH]c2n(CCC)c1=O | 4910
60 | CCCn1c(=O)c2nc(-c3ccc(OCc4nc(-c5ccccc5Cl)no4)cc3)[nH]c2n(CCC)c1=O | > 5000
61 | CCCn1c(=O)c2nc(-c3ccc(OCc4noc(-c5ccc(C)cc5)n4)cc3)[nH]c2n(CCC)c1=O | 1010
62 | CCCn1c(=O)c2nc(-c3ccc(OCc4nc(-c5ccc(C)cc5)no4)cc3)[nH]c2n(CCC)c1=O | > 5000
63 | CCCn1c(=O)c2nc(-c3ccc(OCc4noc(-c5cccc(Cl)c5)n4)cc3)[nH]c2n(CCC)c1=O | > 5000
64 | CCCn1c(=O)c2nc(-c3ccc(OCc4nc(-c5ccccc5F)no4)cc3)[nH]c2n(CCC)c1=O | > 5000
65 | CCCn1c(=O)c2[nH]c(-c3ccc(OCc4nc(-c5ccccc5OC)no4)cc3)nc2n(CCC)c1=O | > 5000
66 | CCCn1c(=O)c2[nH]c(-c3ccc(OCc4nc(-c5cccc(C(F)(F)F)c5)no4)cc3)nc2n(CCC)c1=O | > 5000
67 | CCCn1c(=O)c2nc(-c3ccc(OCc4nc(-c5ccccc5C)no4)cc3)[nH]c2n(CCC)c1=O | > 5000
68 | CCCn1c(=O)c2nc(-c3ccc(OCc4nc(-c5cccc(F)c5)no4)cc3)[nH]c2n(CCC)c1=O | > 5000
69 | CCCn1c(=O)c2nc(-c3ccc(OCc4nc(-c5cccc(C)c5)no4)cc3)[nH]c2n(CCC)c1=O | > 5000
70 | CCCn1c(=O)c2nc(-c3ccc(OCc4noc(-c5ccccc5C)n4)cc3)[nH]c2n(CCC)c1=O | > 15000
71 | CCCn1c(=O)c2[nH]c(-c3ccc(OCc4noc(-c5ccc(C#N)cc5)n4)cc3)nc2n(CCC)c1=O | > 5000
72 | CCCn1c(=O)c2nc(-c3ccc(OCc4nc(-c5ccc(OC)cc5)no4)cc3)[nH]c2n(CCC)c1=O | > 5000
73 | CCCn1c(=O)c2nc(-c3ccc(OCc4nc(-c5ccccc5C(F)(F)F)no4)cc3)[nH]c2n(CCC)c1=O | 3140
74 | CCCn1c(=O)c2nc(-c3ccc(OCc4nc(-c5cccc(OC)c5)no4)cc3)[nH]c2n(CCC)c1=O | > 5000
75 | CCCn1c(=O)c2[nH]c(-c3ccc(OCc4nc(-c5ccc(C(F)(F)F)cc5)no4)cc3)nc2n(CCC)c1=O | > 5000
76 | CCCn1c(=O)c2nc(-c3ccc(OCc4noc(-c5cccc(C(F)(F)F)c5)n4)cc3)[nH]c2n(CCC)c1=O | > 5000
77 | CCCn1c(=O)c2[nH]c(-c3ccc(OCc4noc(-c5ccccc5OC)n4)cc3)nc2n(CCC)c1=O | 2940
78 | CCCn1c(=O)c2[nH]c(-c3ccc(OCc4noc(-c5ccc(F)cc5)n4)cc3)nc2n(CCC)c1=O | > 5000
79 | CCCn1c(=O)c2[nH]c(-c3ccc(OCc4noc(-c5cccc(F)c5)n4)cc3)nc2n(CCC)c1=O | > 5000
80 | CCCn1c(=O)c2nc(-c3ccc(OCc4nc(-c5cccc(Cl)c5)no4)cc3)[nH]c2n(CCC)c1=O | 407
81 | CCCn1c(=O)c2nc(-c3ccc(OCc4nc(-c5ccc(C#N)cc5)no4)cc3)[nH]c2n(CCC)c1=O | > 5000

molecular target: T3, Adenosine receptor A2a; experiment: biochemical; remark: another data set of the same source
Description: Binding affinity against Adenosine A2a receptor labeled by [3H]ZM-241385 in membranes prepared from HEK-A2A cells

Row | SMILES | Ki [nM]
82 | CCCn1c(=O)c2[nH]c(-c3ccc(OCc4noc(-c5ccccc5OC)n4)cc3)nc2n(CCC)c1=O | 23

Reference: ChEMBL document CHEMBL1140281, “The discovery of a selective, high affinity A(2B) adenosine receptor antagonist for the potential treatment of asthma” (Bioorg Med Chem Lett, 2005)
